Like-named read-outs stand apart in the source and are kept apart here.
Legend:
[1] = target: HparOBP49 (Holotrichia parallela, UniProt A0A0G2YD95); test: Fluorescence competitive binding assay with 1-NPN probe, recombinant HparOBP49
Description: (§1) Purification was performed via Ni ion affinity chromatography (GE Healthcare, Beijing, China), and the His-tag was removed using enterokinase for HparOBP20 or tobacco etch virus (TEV) protease for HparOBP49.
(§2) We used an F-380 fluorescence spectrophotometer (Tianjin, China) to determine the results of the perform the binding assay at room temperature (25°C). The excitation wavelength was 337 nm, and the emission spectrum was recorded between 390 and 460 nm.

[2] = target: HparOBP20 (Holotrichia parallela, UniProt A0A0G2YKL4); test: Fluorescence competitive binding assay with 1-NPN probe, recombinant HparOBP20
Sequence of HparOBP20 (A0A0G2YKL4 entry or part of it): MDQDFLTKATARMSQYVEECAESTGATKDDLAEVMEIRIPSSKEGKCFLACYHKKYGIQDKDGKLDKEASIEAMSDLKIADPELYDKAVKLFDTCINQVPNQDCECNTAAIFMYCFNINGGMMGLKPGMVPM
Description: as §1, §2

[3] = system: DBC adults; test: Y-tube olfactometer behavioral response; format: in vivo, Holotrichia parallela; settings: 1 μg/μl, T/(T+C); for Selective response rate (%), Female: females; for Selective response rate (%), Female / Selective response rate (%), Male: in Figure 6, letters mark significance
Description: The behavioral responses of female and male adults to the putative ligands were tested using a Y-tube olfactometer in a dark room at 27 ± 1°C. A filter paper (25 × 8 mm) with 10 μl of the test compound was placed at the end of one arm of the Y-tube, with 10 μl of methanol at the end of the other arm (control tube). The airflow was 500 ml/min. Six replicates were performed for each stimulant with 10 healthy virgin adults in the main stem of the Y-tube, and 10 min was allowed for their distribution. The response rate was calculated according to the following equations: response rate = (T+C)/SUM and selective response rate = T/(T+C), where T represents the number of beetles in the treatment tube; C indicates the number of beetles in the control tube; and SUM is the number of beetles tested.

[4] = system: DBC adults; test: Field evaluation, baited traps; format: in vivo, Holotrichia parallela; settings: for Attractant ability in traps: result in words
Description: According to the laboratory evaluation, in addition to the main sex pheromone component, L-leucine methyl ester, (Z)-3-hexenyl acetate was considered as a candidate compound for attracting DBC adults in the field. The tested chemicals were individually dissolved with methanol to 360 mg/ml. A dispenser was constructed using oil-free cotton wool with 360 mg of the tested chemical and stored in a freezer before use. Methanol was employed as a control. The treatments were as follows: • - L-leucine methyl ester alone, 360 mg/ml, 1 ml/dispenser • - (Z)-3-hexenyl acetate alone, 360 mg/ml, 1 ml/dispenser • - methanol alone as control, 99% purity, 1 ml/dispenser All experiments were performed at the experimental station of the Shandong Peanut Research Institute, Lai Xi Wang Cheng, Qingdao, China. Traps were placed in middle of the field, and each trap was located 60 m from any other trap, so that the individual treatments were 60 m apart. To avoid cross-contamination, only one compound was tested at each sub-site at any time, and each compound was tested at only one sub-site ([Isberg et al., 2017]). Each trap was set to operate from 1 h before sunset until 1 h after sunset. Three traps (replicates) were selected for each treatment. The test period was June 1–20, 2017. As a rule, the traps were checked every day, and the individuals that were caught in all experiments were sexed.

[5] = system: DBC antennae; test: Electroantennogram (EAG) responses of virgin male/female antennae; set-up: species or system Holotrichia parallela; settings: male antennae, 1 μg/μl, corrected with methanol
Description: The EAG responses of virgin male/female antennae were measured after removing the tips of the three antennal lamellae (at approximately 1 mm) and separating them from each other. The chemicals used for the EAG and behavior assays were diluted in methanol (HPLC grade) to varying concentrations (0.1, 1, and 10 μg/μl), and methanol was used as a control. A 10 μl aliquot of each concentration was applied to a filter paper (25 × 8 mm). EAG responses were recorded for 5 s, with a stimulation interval of 30 s and a flow rate of 4 ml/s for both the stimulant and purge airflow. Each chemical was tested against six antennae, and each antenna was tested with three repeated stimulations. The EAG apparatus consisted of a signal acquisition system (IDAC-4), a micromanipulator assembly (INR-5), a stimulus controller (CS-05), and a system for outputting the EAG results (Syntech Company, Holland).

[6] = displacement of 2 μM 1-NPN, 2 μM protein, Tris-HCl pH 7.4, 25°C, read-out: IC50, HparOBP49
[7] = calculated from IC50, Ki = [IC50]/(1+[1-NPN]/K1-NPN), read-out: Ki, HparOBP20
[8] = displacement of 2 μM 1-NPN, 2 μM protein, Tris-HCl pH 7.4, 25°C, read-out: IC50, HparOBP20
[9] = Ki, HparOBP20, calculated from IC50, Ki = [IC50]/(1+[1-NPN]/K1-NPN)

Sequence of HparOBP49 (A0A0G2YD95 entry or part of it): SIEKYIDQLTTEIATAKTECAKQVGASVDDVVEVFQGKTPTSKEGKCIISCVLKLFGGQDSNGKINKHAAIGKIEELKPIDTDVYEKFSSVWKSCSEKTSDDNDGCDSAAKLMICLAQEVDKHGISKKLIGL

| Molecule | IC50 [1, 6] [µM] | IC50 [2, 8] [µM] | IC50 [1] [µM] | IC50 [2] [µM] | other results |
| --- | --- | --- | --- | --- | --- |
| CCCCCCCCCCCC [Dodecane] | > 50 | 48.5 |  |  | Ki [2, 7]: 40.6 µM |
| CCCCCCCCCCCC=O [Dodecyl aldehyde] | > 50 | > 50 |  |  |  |
| CC(C)=CCC/C(C)=C/CC/C(C)=C/CO [Farnesol, mixture of isomers, Farnesol] | > 50 | > 50 |  |  |  |
| CCCCCC(=O)O [Hexanoic acid] |  |  | 47.6 | 47.2 | Ki [1]: 42.2 µM; Ki [2, 9]: 39.5 µM |
| COC(=O)[C@@H](N)CC(C)C.Cl [L-Leucine methyl ester] | > 50 | > 50 |  |  | Selective response rate (%), Female [3]: 0.20c %; Selective response rate, males ([3]; males): 96%; Male DBCs caught in traps ([4]; males, 360 mg per dispenser, mean ± SE, N=3 traps): 258 ± 12.860 DBCs; EAG response, males [5]: 5.68 mV |
| COC(=O)c1ccccc1 [Methyl benzoate] |  |  | > 50 | > 50 |  |
| COC(=O)c1ccccc1O [Methyl salicylate] |  |  | > 50 | 28.5 | Ki [2, 9]: 23.8 µM |
| CCCCCCCCC=O [Nonanal] | > 50 | > 50 |  |  |  |
| CCCCCCCCC(=O)O [Nonanoic acid] | > 50 | > 50 |  |  |  |
| CCCCCCCCCCCCCCC [Pentadecane] | > 50 | 16.5 |  |  | Ki [2, 7]: 13.8 µM; Selective response rate (%), Female [3]: 67%; Selective response rate (%), Male ([3]; males): 59%; Attractant ability in traps [4]: low attractant ability |
| CCCCC=O [Valeraldehyde] | > 50 | 31.1 |  |  | Ki [2, 7]: 26.1 µM |
| CC1=CC[C@H](C(C)C)C=C1 [α-Phellandrene] |  |  | > 50 | 21.1 | Ki [2, 9]: 17.6 µM; Selective response rate (%), Female [3]: 51%; Selective response rate (%), Male ([3]; males): 73%; Attractant ability in traps [4]: low attractant ability |
| CC1=CCC2CC1C2(C)C (stereo not drawn) [α-Pinene] |  |  | > 50 | 26.8 | Ki [2, 9]: 22.4 µM |
| C=C1CC/C=C(\C)CC[C@@H]2[C@@H]1CC2(C)C [β-Caryophyllene] |  |  | > 50 | > 50 | Selective response rate (%), Female [3]: 48% |
| Farnesene [Farnesene, mixture of isomers] | > 50 | > 50 |  |  |  |
| Ocimene [Ocimene, mixture of isomers] | > 50 | > 50 |  |  |  |

— article PMC6058716, “Two Odorant-Binding Proteins of the Dark Black Chafer (Holotrichia parallela) Display Preferential Binding to Biologically Active Host Plant Volatiles” (Frontiers in Physiology, 2018)
